As usually defined, the EC50 is the concentration that produces a half-maximal response.

Read-outs that look alike come from different tables or passages of the source.

Results on twelve compounds are retold here after US11000491B2, “Amino-aryl-benzamide compounds and methods of use thereof” (HEPANOVA, INC., priority 2017, dated 2021).

What all share (type): cell-based
In test [1] the test system is Huh7 cells. Briefly: LD content in Huh7 cells pre-treated with insulin, Oil-Red-O staining, absorbance OD 540 nm. As to conditions: procedure of Example 3, read-out: LD content inhibition (EC50). The procedure: FIG. 6. […] Spectrophotometric absorbance of untreated or HPN-01-treated Huh7 cells pre-incubated with 1 mM insulin is shown. LD contents were stained using Oil Red O, and measured by determining spectrophotometer absorbance under OD 540 nm.
Huh7 cells were mock treated or pre-treated with 1 mM insulin, and subsequently treated with indicated amounted of HPN-01.
The ability of each HPN-01 derivative obtained from the synthesis methods described above, to inhibit LD formation in hepatocytes, was tested using the procedure outlined in Example 3. The results of this analysis are shown below in Table 6 (second column).

Test [2] deals with SREBP-2. The test is described as follows: SREBP-2 expression in cultured primary human hepatocytes. As to conditions: procedure of Example 6, read-out: SREBP-2 mRNA inhibition (EC50). The procedure: (§1) FIG. 9. Effects of HPN-01 on the expression of SREBP-1 (master regulator of hepatic glucose metabolism and fatty acid synthesis) and SREBP-2 (master regulator of cholesterol homeostasis in cells) in cultured primary human hepatocytes.
(§2) Cultured primary human hepatocytes were treated with various concentrations of HPN-01, and the expression levels of SREBP-1 (master regulator of hepatic glucose metabolism and fatty acid synthesis) and SREBP-2 (master regulator of cholesterol homeostasis in cells) were subsequently determined.
(§3) The ability of each HPN-01 derivative obtained from the synthesis methods described above, to inhibit SREBP-1 and SREBP-2 mRNA expression in primary hepatocytes, was tested using the procedure outlined in Example 6. The results of this analysis are shown in Table 6 (third and fourth columns).

The subject of test [3] is SREBP-1. Briefly: SREBP-1 expression in cultured primary human hepatocytes. As to conditions: procedure of Example 6, read-out: SREBP-1 mRNA inhibition (EC50). The procedure:
as §1, §2, §3

The mark [4] stands for this setting: Homo sapiens, Huh-7, Huh7 cells.

`Nc1c(C(=O)NCc2cccnc2)cc(-c2ccc(Cl)cc2)cc1-c1ccc(S(N)(=O)=O)cc1` [HPN-01630, 4′-amino-4-chloro-N-(pyridin-3-ylmethyl)-4″-sulfamoyl-[1,1′:3′,1″-terphenyl]-5′-carboxamide]: the EC50 came out at 2.39 µM in test [1] (setting [4]); 3.87 µM in test [2] (Homo sapiens, Hepatocyte); 3.57 µM in test [3] (Homo sapiens, Hepatocyte).
Regarding “(E)-2-amino-5-(3-oxo-3-(phenylamino)prop-1-en-1-yl)-4′-sulfamoyl-[1,1′-biphenyl]-3-carboxamide [HPN-01125]”, the EC50 in test [1] (Huh7 cells) amounted to 0.38 µM; in test [2], 4.27 µM; in test [3], 2.8 µM.
Consider `NC(=O)c1cc(-c2ccc(Cl)cc2)cc(Nc2cccc(S(N)(=O)=O)c2)c1N` [HPN-01413, 4-amino-4′-chloro-5-((3-sulfamoylphenyl)amino)-[1,1′-biphenyl]-3-carboxamide], for which the 50% effective concentration (EC50) was 0.74 µM in test [1] (setting [4]); 2.7 µM in test [2] (Homo sapiens, Hepatocyte); 1.52 µM in test [3] (Homo sapiens, Hepatocyte).
On the same counts, the results for `NS(=O)(=O)c1ccc(-c2cc(-c3ccc(Br)cc3)cc3c(=O)[nH]c(=O)[nH]c23)cc1` [HPN-01610, 4-(6-(4-bromophenyl)-2,4-dioxo-1,2,3,4-tetrahydroquinazolin-8-yl)benzene sulfonamide] are 1.16 µM, 3.44 µM and 2 µM.
As for `NC(=O)c1cc(-c2ccc(Cl)cc2)cc(Oc2cccc(-c3nn[nH]n3)c2)c1N` [HPN-01410, 5-(3-(2H-tetrazol-5-yl)phenoxy)-4-amino-4′-chloro-[1,1′-biphenyl]-3-carboxamide], the EC50 in test [1] (setting [4]) stood at 0.58 µM; in test [2] (Homo sapiens, Hepatocyte), 4.08 µM; in test [3] (Homo sapiens, Hepatocyte), 2.09 µM.
On the same counts, the results for `NC(=O)c1cc(-c2ccc(Cl)cc2)cc(NCCc2ccc(S(N)(=O)=O)cc2)c1N` [HPN-01425, 4-amino-4′-chloro-5-((4-sulfamoylphenethyl)amino)-[1,1′-biphenyl]-3-carboxamide] are 6.48 µM, 3.44 µM and 2.83 µM.
Take `NCCC(=O)Nc1c(C(N)=O)cc(-c2ccc(Cl)cc2)cc1-c1ccc(S(N)(=O)=O)cc1` [HPN-01530, 4′-(3-aminopropanamido)-4-chloro-4″-sulfamoyl-[1,1′:3′,1″-terphenyl]-5′-carboxamide]: the EC50 in test [1] (Huh7 cells) turned out to be 0.46 µM; in test [2], 9.4 µM; in test [3], 3.94 µM.
Consider `NC(=O)c1cc(/C=C/c2cccc(Br)c2)cc(-c2ccc(S(N)(=O)=O)cc2)c1N` [HPN-01103, (E)-2-amino-5-(3-bromostyryl)-4′-sulfamoyl-[1,1′-biphenyl]-3-carboxamide], for which the EC50 was found to be 0.99 µM in test [1] (setting [4]); 3.08 µM in test [2] (Homo sapiens, Hepatocyte); 2.14 µM in test [3] (Homo sapiens, Hepatocyte).
In the same order, the values of `Nc1c(C(=O)Nc2ccc[nH]2)cc(-c2ccc(Cl)cc2)cc1-c1ccc(S(N)(=O)=O)cc1` [HPN-01626, 4′-amino-4-chloro-N-(1H-pyrrol-2-yl)-4″-sulfamoyl-[1,1′:3′,1″-terphenyl]-5′-carboxamide] are 3.05 µM, 12.5 µM and 7.22 µM.
Take `NC(=O)c1cc(Nc2ccc(Cl)cc2)cc(-c2ccc(S(N)(=O)=O)cc2)c1N` [HPN-01312, 2-amino-5-((4-chlorophenyl)amino)-4′-sulfamoyl-[1,1′-biphenyl]-3-carboxamide]: the EC50 was found to be 1.45 µM in test [1] (setting [4]); 10.3 µM in test [2] (Homo sapiens, Hepatocyte); 7.53 µM in test [3] (Homo sapiens, Hepatocyte).
On the same counts, the results for `CCCCNc1c(C(N)=O)cc(-c2ccc(Cl)cc2)cc1-c1ccc(S(N)(=O)=O)cc1` [HPN-01533, 4′-(butylamino)-4-chloro-4″-sulfamoyl-[1,1′:3′,1″-terphenyl]-5′-carboxamide] are 0.48 µM, 11.7 µM and 2.83 µM.
On the same counts, the results for `NC(=O)Nc1ccc(-c2cc(-c3ccc(Cl)cc3)cc(C(N)=O)c2NC(=O)CCO)cc1` [HPN-01520, 4-chloro-4′-(3-hydroxypropanamido)-4″-ureido-[1,1′:3′,1″-terphenyl]-5′-carboxamide] are 2.51 µM, 4.45 µM and 3.01 µM.
